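Five concentrations, 48 hours, 96-well plates. GI50 is the concentration that inhibits growth by half. The concentration for full growth arrest is given as TGI.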
Experiments:
Assay in all cases: DTP human tumour cell line panel, 48 h
[1] = test system: 786-0 renal
[2] = test system: NCI-H23 lung
[3] = test system: HOP-62 NSCLC
[4] = test system: HCT-15 colon
[5] = test system: SK-MEL-28 melanoma
[6] = test system: NCI-H522 lung
[7] = test system: SK-MEL-5 melanoma
[8] = test system: DU-145 prostate
[9] = test system: MDA-MB-435
[10] = test system: PC-3 prostate

SMILES | TGI [1] | TGI [2] | TGI [3] | TGI [4] | TGI [5] | TGI [6] | TGI [7] | TGI [8] | TGI [9] | TGI [10] | GI50 [1] | GI50 [2] | GI50 [6] | GI50 [7] | GI50 [8] | GI50 [9] | GI50 [3] | GI50 [10] | GI50 [4] | GI50 [5]
CCOC(=O)C1(C)CCCCC(=O)N1 (configuration not stated) | > 100 µM | > 100 µM | > 100 µM | > 100 µM | > 100 µM |  |  |  |  |  |  |  |  |  |  |  |  |  |  | 
CSC(=Nc1ccccc1)/N=C(\SCc1ccccc1)N(C)C | 1.78 µM | 3.32 µM | 3.31 µM | 2.38 µM | 1.79 µM | 0.54 µM | 2.92 µM | 2.13 µM | 2.48 µM | 2.55 µM |  |  |  |  |  |  |  |  |  | 
C#CCOc1ccc2ncnc(Nc3ccc(NC(=O)C=C)cc3)c2c1 | 38.2 µM | > 100 µM | > 100 µM | > 100 µM | > 100 µM | 39.7 µM | > 100 µM | > 100 µM | > 100 µM | > 100 µM | 11.9 µM | > 100 µM | 11.8 µM | > 100 µM | 25.4 µM | 36.2 µM | > 100 µM | 70.4 µM | 19.2 µM | 23.6 µM
CC1=C(C(=O)Nc2ccc(Cl)c(C(=O)OC(C)C)c2)SCCO1 | > 100 µM | 96.3 µM | > 100 µM | > 100 µM | 99.5 µM | 69.9 µM | 81.4 µM | > 100 µM | > 100 µM | > 100 µM |  |  |  |  |  |  |  |  |  | 
COc1cc2c(=O)[nH]c3cc([N+](=O)[O-])ccc3c2cc1[N+](=O)[O-] | > 100 µM | > 100 µM | 36.2 µM | > 100 µM | > 100 µM | > 100 µM | > 100 µM | > 100 µM |  | > 100 µM | 11.9 µM | 3.69 µM | 1.67 µM | 4.63 µM | 4.63 µM |  | 7.38 µM | 6.07 µM | 7.29 µM | > 100 µM
CN(C)C(=S)SCC(=O)Nc1ccccc1 | > 100 µM | > 100 µM | > 100 µM | > 100 µM | > 100 µM | > 100 µM | > 100 µM | > 100 µM | > 100 µM |  |  |  |  |  |  |  |  |  |  | 
COc1cc2nc3cc([N+](=O)[O-])ccc3c(NCCNCC(C)(C)O)c2cc1OC | 4.04 µM | 3.43 µM | 3.26 µM | 12.8 µM |  | 1.04 µM |  | 2.34 µM | 1.93 µM | 2.47 µM | 1.51 µM | 0.629 µM | 0.256 µM |  | 0.44 µM | 0.6 µM | 0.953 µM | 0.581 µM | 3.4 µM | 
ClC(Cl)[Si]12OCCN(CCO1)CCO2 | > 100 µM | > 100 µM |  |  | > 100 µM | > 100 µM | > 100 µM |  |  |  |  |  |  |  |  |  |  |  |  | 
Cn1nc(-c2ccccc2)c2c(/C=C/c3ccccc3)onc2c1=O | > 100 µM | > 100 µM | > 100 µM | > 100 µM | > 100 µM | > 100 µM | > 100 µM |  |  |  |  |  |  |  |  |  |  |  |  | 
CN(c1ccccc1)c1c(Cl)c(=O)oc2c1ccc1occc12 | > 100 µM | > 100 µM |  | > 100 µM | > 100 µM | > 100 µM | > 100 µM |  |  |  |  |  |  |  |  |  |  |  |  | 
Cc1ccc(S(=O)(=O)N/N=C(/c2nc3ccc([N+](=O)[O-])cc3[nH]c2=O)C(O)c2ccc(C(O)/C(=N\NS(=O)(=O)c3ccc(C)cc3)c3nc4ccc([N+](=O)[O-])cc4[nH]c3=O)cc2)cc1 (configuration not stated) | > 100 µM | > 100 µM | > 100 µM |  | > 100 µM | 55.7 µM | > 100 µM |  |  |  |  |  |  |  |  |  |  |  |  | 
COc1ccc(/C=C/C(=O)c2sc(-n3nc(-c4ccccc4)cc3-c3ccccc3)nc2C)cc1 | > 100 µM | > 100 µM | > 100 µM | > 100 µM | > 100 µM | > 100 µM | > 100 µM |  |  |  | > 100 µM | > 100 µM |  |  |  |  | > 100 µM |  |  | > 100 µM
COc1cc(CCc2ccc(N)cc2)cc(OC)c1OC | > 100 µM | > 100 µM | > 100 µM | > 100 µM | 92.8 µM | > 83.4 µM | > 89.6 µM |  |  |  |  |  |  |  |  |  |  |  |  | 
CC(=O)C1=C(O)C2C3c4c[nH]c5cccc(c45)CC3C(C)(C)N2C1=O (configuration not stated) | > 100 µM | 64.3 µM | 22.4 µM | > 100 µM | > 100 µM | 63.4 µM | 27.2 µM |  |  |  |  |  |  |  |  |  |  |  |  | 
CC(=O)OC1COC(n2c(=S)n(-c3ccccc3)c(=O)c3ccccc32)C(OC(C)=O)C1OC(C)=O (configuration not stated) | > 100 µM | > 100 µM | > 100 µM | > 100 µM | > 100 µM | > 100 µM | > 100 µM |  |  |  |  |  |  |  |  |  |  |  |  | 
CC(SC(=O)Nc1ccc(N=Nc2ccccc2)cc1)C(=O)O (configuration not stated) | > 100 µM | > 100 µM | > 100 µM | > 100 µM | > 100 µM | > 100 µM |  |  |  |  |  |  |  |  |  |  |  |  |  | 
CCOc1ccc(NC(=O)CC2C(=O)Nc3ccccc3S2(=O)=O)cc1 (configuration not stated) | > 100 µM | > 100 µM | > 100 µM | > 100 µM | > 100 µM | > 100 µM |  |  |  |  |  |  |  |  |  |  |  |  |  | 
c1ccc2c(c1)cc1n2CC2CN=NC12 (configuration not stated) | > 100 µM |  | > 100 µM | > 100 µM | > 100 µM | > 100 µM | > 100 µM |  |  |  |  |  |  |  |  |  |  |  |  | 
C=CCc1cc(OC)c2c(c1)C(OC)CC(c1ccc(OC)c(OC)c1)O2 (configuration not stated) | > 100 µM |  | > 100 µM | > 100 µM | > 100 µM |  | > 100 µM |  |  |  |  |  |  |  |  |  |  |  |  | 
CC(=O)NNc1nc(C)c(C(=O)NNC(=O)C(=O)Nc2ccc(Cl)cc2Cl)s1 | > 100 µM | 96.4 µM | > 100 µM | > 100 µM | > 100 µM | 52.8 µM | > 100 µM |  |  |  |  |  |  |  |  |  |  |  |  | 
CC(=O)O[C@H]1CC[C@@]2(C)C(=CC[C@@H]3C2CC[C@]2(C)Nc4nc5ccccc5cc4CC32)C1 (some centres not stated) | 10.7 µM | 26.6 µM | 26.7 µM | 8.01 µM |  | 24.1 µM | 15.4 µM |  |  |  |  |  |  |  |  |  |  |  |  | 
C[C@]12CCC3[C@@H](CC[C@@H]4c5nonc5CC[C@]34C)C1CC[C@@H]2O (some centres not stated) | 75.5 µM | > 100 µM | > 100 µM | 83.5 µM | 70 µM | 50.9 µM | 41 µM |  |  |  |  |  |  |  |  |  |  |  |  | 
O=C(CC(Cl)=C(Cl)Cl)c1cccc(Cl)c1Cl | > 100 µM | > 100 µM | > 100 µM | > 100 µM | > 100 µM | > 100 µM | > 100 µM | > 100 µM |  | > 100 µM | 44.7 µM | 63.2 µM | 36.9 µM | > 100 µM | > 100 µM |  | 82.1 µM | 78.3 µM | 47.8 µM | > 100 µM
CC(C)(C)C(C#N)(C#N)c1ccc(C(C#N)(C#N)C(C)(C)C)nn1 | > 100 µM | > 100 µM | > 100 µM | > 100 µM | > 100 µM | > 100 µM | > 100 µM |  |  |  |  |  |  |  |  |  |  |  |  | 

Reference: PubChem BioAssay (NCI)
